In PubChem BioAssay AID1963444 (Molecular Pharmacology Branch, DTP, NCI, 2024):

Test system: HSSY-II complex spheroid growth, percent test/control
Experiment: Anticancer human tumor HSSY-II cell line growth inhibition [Asc];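 note: spheroids exposed to drug for 7 days before reading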
Settings: for IC50: curve of first compound; for viability, T/C: stronger effect = lower value
Outline: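 Spheroid model: tumor line + HUVEC + hMSC. Single agents and combinations; top conc. at/near clinical Cmax (10 microM if undetermined), half-log dilutions. DMSO stocks at 800-fold test concentration.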

[1] = second compound 0.1 µM, first compound 0.0316 µM
[2] = second compound 0.1 µM, first compound 0.1 µM
[3] = second compound 0.1 µM, first compound 0.316 µM
[4] = second compound 0.1 µM, first compound 1 µM
[5] = second compound 0.316 µM, first compound 0.0316 µM
[6] = second compound 0.316 µM, first compound 0.1 µM
[7] = second compound 0.316 µM, first compound 0.316 µM
[8] = second compound 0.316 µM, first compound 1 µM
[9] = second compound 1 µM, first compound 0.0316 µM
[10] = second compound 1 µM, first compound 0.1 µM
[11] = second compound 1 µM, first compound 0.316 µM
[12] = second compound 1 µM, first compound 1 µM

`COc1c(OCCCN2CCOCC2)ccc2c3n(c(=NC(=O)c4cnc(N)nc4)nc12)CCN3` + CNC(C)C(=O)NC1CN(S(=O)(=O)c2cccc(S(=O)(=O)N3CCC4CCC(C(=O)NC(c5ccccc5)c5ccccc5)N4C(=O)C(NC(=O)C(C)NC)C3)c2)CCC2CCC(C(=O)NC(c3ccccc3)c3ccccc3)N2C1=O showed an IC50 (second compound 0.01 µM) of 44 nM, an IC50 (second compound 0.0316 µM) of 45.1 nM and an IC50 (second compound 0.1 µM) of 34.9 nM. For the same compound, the IC50 (second compound 0.316 µM) was 45.9 nM, the IC50 (second compound 1 µM) was 54 nM and the viability, T/C (second compound 0.01 µM, first compound 0.00316 µM) was 84.3%. The viability, T/C (second compound 0.01 µM, first compound 0.01 µM) was 79.6%, the viability, T/C (second compound 0.01 µM, first compound 0.0316 µM) was 51.4% and the viability, T/C (second compound 0.01 µM, first compound 0.1 µM) was 36.8%. For the same compound, the viability, T/C (second compound 0.01 µM, first compound 0.316 µM) was 22.4%, the viability, T/C (second compound 0.01 µM, first compound 1 µM) was 12% and the viability, T/C (second compound 0.0316 µM, first compound 0.00316 µM) was 82%. It also gave a viability, T/C (second compound 0.0316 µM, first compound 0.01 µM) of 77.5%, a viability, T/C (second compound 0.0316 µM, first compound 0.0316 µM) of 54.8% and a viability, T/C (second compound 0.0316 µM, first compound 0.1 µM) of 34.3%. It also gave a viability, T/C (second compound 0.0316 µM, first compound 0.316 µM) of 21.8%, a viability, T/C (second compound 0.0316 µM, first compound 1 µM) of 9.94% and a viability, T/C (second compound 0.1 µM, first compound 0.00316 µM) of 81.2%. It also gave a viability, T/C (second compound 0.1 µM, first compound 0.01 µM) of 64.9%, a viability, T/C [1] of 49% and a viability, T/C [2] of 38.8%. For the same compound, the viability, T/C [3] was 24.7%, the viability, T/C [4] was 10.4% and the viability, T/C (second compound 0.316 µM, first compound 0.00316 µM) was 86.4%. For the same compound, the viability, T/C (second compound 0.316 µM, first compound 0.01 µM) was 80.1%, the viability, T/C [5] was 53.8% and the viability, T/C [6] was 34.5%. The viability, T/C [7] was 24.2%, the viability, T/C [8] was 8.5% and the viability, T/C (second compound 1 µM, first compound 0.00316 µM) was 80.1%. For the same compound, the viability, T/C (second compound 1 µM, first compound 0.01 µM) was 73.8%, the viability, T/C [9] was 63.2% and the viability, T/C [10] was 33.7%. The viability, T/C [11] was 24.7% and the viability, T/C [12] was 9.52%.
For `C=C(F)C(=O)N1CCN(c2nc(OCC3CCCN3C)nc3c2CCN(c2cccc4cccc(Cl)c24)C3)CC1CC#N` (stereo not given) + CCN1C(C(=O)NC23CCC(C(=O)O)(CC2)CC3)C(c2cccc(Cl)c2F)C2(C(=O)Nc3cc(Cl)ccc32)C12CCCCC2, the IC50 (second compound 0.03 µM) was 1090 nM, the IC50 (second compound 0.0949 µM) was 340 nM and the IC50 (second compound 0.3 µM) was < 31.6 nM. The IC50 (second compound 0.949 µM) was < 31.6 nM, the IC50 (second compound 3 µM) was < 31.6 nM and the viability, T/C (second compound 0.03 µM, first compound 0.0316 µM) was 93.7%. For the same compound, the viability, T/C (second compound 0.03 µM, first compound 0.1 µM) was 82.3%, the viability, T/C (second compound 0.03 µM, first compound 0.316 µM) was 77.1% and the viability, T/C (second compound 0.03 µM, first compound 1 µM) was 55.2%. For the same compound, the viability, T/C (second compound 0.03 µM, first compound 3.16 µM) was 1.72%, the viability, T/C (second compound 0.03 µM, first compound 10 µM) was 0.13% and the viability, T/C (second compound 0.0949 µM, first compound 0.0316 µM) was 64.5%. For the same compound, the viability, T/C (second compound 0.0949 µM, first compound 0.1 µM) was 66.6%, the viability, T/C (second compound 0.0949 µM, first compound 0.316 µM) was 49.1% and the viability, T/C (second compound 0.0949 µM, first compound 1 µM) was 26.5%. The viability, T/C (second compound 0.0949 µM, first compound 3.16 µM) was 0.75%, the viability, T/C (second compound 0.0949 µM, first compound 10 µM) was 0.1% and the viability, T/C (second compound 0.3 µM, first compound 0.0316 µM) was 26.3%. For the same compound, the viability, T/C (second compound 0.3 µM, first compound 0.1 µM) was 23.1%, the viability, T/C (second compound 0.3 µM, first compound 0.316 µM) was 19.9% and the viability, T/C (second compound 0.3 µM, first compound 1 µM) was 13.4%. For the same compound, the viability, T/C (second compound 0.3 µM, first compound 3.16 µM) was 0.42%, the viability, T/C (second compound 0.3 µM, first compound 10 µM) was 0.12% and the viability, T/C (second compound 0.949 µM, first compound 0.0316 µM) was 8.79%. It also gave a viability, T/C (second compound 0.949 µM, first compound 0.1 µM) of 7.11%, a viability, T/C (second compound 0.949 µM, first compound 0.316 µM) of 6.61% and a viability, T/C (second compound 0.949 µM, first compound 1 µM) of 3.73%. The viability, T/C (second compound 0.949 µM, first compound 3.16 µM) was 0.07%, the viability, T/C (second compound 0.949 µM, first compound 10 µM) was 0.12% and the viability, T/C (second compound 3 µM, first compound 0.0316 µM) was 3.47%. For the same compound, the viability, T/C (second compound 3 µM, first compound 0.1 µM) was 2.72%, the viability, T/C (second compound 3 µM, first compound 0.316 µM) was 2.77% and the viability, T/C (second compound 3 µM, first compound 1 µM) was 1.35%. The viability, T/C (second compound 3 µM, first compound 3.16 µM) was 0.15% and the viability, T/C (second compound 3 µM, first compound 10 µM) was 0.21%.
`C=CC(=O)N1CCN(c2nc(=O)n(-c3c(C)ccnc3C(C)C)c3nc(-c4c(O)cccc4F)c(F)cc23)C(C)C1` (stereo not given) + Cc1c(S(C)(=O)=O)c(-c2cc(F)cc(N3CCN(c4ccc(NS(=O)(=O)c5ccc(NC(CCN6CCC(C(=O)OCCCP(=O)(O)O)CC6)CSc6ccccc6)c(S(=O)(=O)C(F)(F)F)c5)cc4)CC3)c2)c(-c2ccc(Cl)cc2)n1C(C)C was tested, and the IC50 (second compound 0.1 µM) was > 10000 nM, the IC50 (second compound 0.316 µM) was > 10000 nM and the IC50 (second compound 1 µM) was > 10000 nM. The IC50 (second compound 3.16 µM) was > 10000 nM, the IC50 (second compound 10 µM) was > 10000 nM and the viability, T/C [1] was 116%. For the same compound, the viability, T/C [2] was 121%, the viability, T/C [3] was 105% and the viability, T/C [4] was 111%. The viability, T/C (second compound 0.1 µM, first compound 3.16 µM) was 97.8%, the viability, T/C (second compound 0.1 µM, first compound 10 µM) was 67.7% and the viability, T/C [5] was 114%. It also gave a viability, T/C [6] of 110%, a viability, T/C [7] of 105% and a viability, T/C [8] of 99.9%. The viability, T/C (second compound 0.316 µM, first compound 3.16 µM) was 114%, the viability, T/C (second compound 0.316 µM, first compound 10 µM) was 67.8% and the viability, T/C [9] was 104%. It also gave a viability, T/C [10] of 111%, a viability, T/C [11] of 96.4% and a viability, T/C [12] of 100%. For the same compound, the viability, T/C (second compound 1 µM, first compound 3.16 µM) was 105%, the viability, T/C (second compound 1 µM, first compound 10 µM) was 51.3% and the viability, T/C (second compound 3.16 µM, first compound 0.0316 µM) was 109%. The viability, T/C (second compound 3.16 µM, first compound 0.1 µM) was 99.9%, the viability, T/C (second compound 3.16 µM, first compound 0.316 µM) was 101% and the viability, T/C (second compound 3.16 µM, first compound 1 µM) was 107%. For the same compound, the viability, T/C (second compound 3.16 µM, first compound 3.16 µM) was 103%, the viability, T/C (second compound 3.16 µM, first compound 10 µM) was 55% and the viability, T/C (second compound 10 µM, first compound 0.0316 µM) was 100%. The viability, T/C (second compound 10 µM, first compound 0.1 µM) was 99.2%, the viability, T/C (second compound 10 µM, first compound 0.316 µM) was 93.1% and the viability, T/C (second compound 10 µM, first compound 1 µM) was 110%. It also gave a viability, T/C (second compound 10 µM, first compound 3.16 µM) of 96.7% and a viability, T/C (second compound 10 µM, first compound 10 µM) of 61.3%.
